Experimental data reported in paper PMC1513218 (BMC Pharmacology, 2006).
Where a name gives a salt, the structure may show the parent alone.

Assays:
[1] = target: T1, anthrax lethal factor (LF) protease (Bacillus anthracis, UniProt P15917); test: biochemical; assay type: biochemical
[2] = target: botulinum neurotoxin/A (BoNT/A) (Clostridium botulinum, UniProt P0DPI1); test: biochemical; assay type: biochemical
[3] = target: furin (Homo sapiens, UniProt P09958); test: Furin inhibition, fluorogenic substrate cleavage assay; assay type: biochemical
Sequence of furin (P09958 108-794): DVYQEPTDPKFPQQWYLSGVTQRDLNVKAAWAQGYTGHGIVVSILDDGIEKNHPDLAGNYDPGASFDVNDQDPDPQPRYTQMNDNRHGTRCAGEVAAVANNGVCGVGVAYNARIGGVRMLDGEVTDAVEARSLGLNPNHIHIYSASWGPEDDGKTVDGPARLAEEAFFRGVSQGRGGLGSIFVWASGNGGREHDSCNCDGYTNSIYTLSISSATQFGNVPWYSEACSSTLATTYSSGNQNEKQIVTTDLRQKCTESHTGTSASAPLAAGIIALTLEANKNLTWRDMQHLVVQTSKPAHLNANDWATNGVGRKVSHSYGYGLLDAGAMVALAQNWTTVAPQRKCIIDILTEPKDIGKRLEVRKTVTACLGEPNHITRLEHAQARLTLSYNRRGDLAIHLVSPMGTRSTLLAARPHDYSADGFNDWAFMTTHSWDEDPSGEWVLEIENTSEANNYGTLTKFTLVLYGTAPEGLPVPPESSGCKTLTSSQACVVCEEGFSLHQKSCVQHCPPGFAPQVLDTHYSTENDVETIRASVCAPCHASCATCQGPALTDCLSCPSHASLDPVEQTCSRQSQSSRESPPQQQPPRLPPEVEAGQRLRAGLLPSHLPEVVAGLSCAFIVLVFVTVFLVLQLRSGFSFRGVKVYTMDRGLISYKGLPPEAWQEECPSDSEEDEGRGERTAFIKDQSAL

[4] = target: MMP-9 (Homo sapiens, UniProt P14780); test: biochemical
Sequence of MMP-9 (P14780 94-707, species assumed): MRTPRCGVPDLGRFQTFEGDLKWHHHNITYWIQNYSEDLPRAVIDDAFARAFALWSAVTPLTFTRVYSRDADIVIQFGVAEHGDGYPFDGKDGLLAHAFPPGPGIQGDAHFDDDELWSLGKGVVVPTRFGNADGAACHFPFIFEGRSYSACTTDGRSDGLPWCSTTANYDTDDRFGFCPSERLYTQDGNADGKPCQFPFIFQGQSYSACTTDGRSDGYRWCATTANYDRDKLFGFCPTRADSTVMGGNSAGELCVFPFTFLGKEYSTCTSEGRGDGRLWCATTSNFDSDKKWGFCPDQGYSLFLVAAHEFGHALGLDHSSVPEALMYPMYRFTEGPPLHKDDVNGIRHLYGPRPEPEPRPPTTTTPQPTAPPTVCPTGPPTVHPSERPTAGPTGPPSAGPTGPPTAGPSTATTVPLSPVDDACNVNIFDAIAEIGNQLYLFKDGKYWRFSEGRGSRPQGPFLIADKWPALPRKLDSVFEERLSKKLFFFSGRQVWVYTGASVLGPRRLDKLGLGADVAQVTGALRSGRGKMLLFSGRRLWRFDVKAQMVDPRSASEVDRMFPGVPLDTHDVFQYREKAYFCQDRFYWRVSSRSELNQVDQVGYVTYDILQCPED

[5] = target: T1, anthrax lethal factor (LF) protease; assay type: biochemical
[6] = target: trypsin (Homo sapiens, UniProt P07477); test: biochemical
[7] = target: cathepsin B (Homo sapiens, UniProt P07858); test: biochemical
[8] = target: cathepsin D (Homo sapiens, UniProt P07339); test: biochemical
Sequence of cathepsin D (P07339 65-412, species assumed): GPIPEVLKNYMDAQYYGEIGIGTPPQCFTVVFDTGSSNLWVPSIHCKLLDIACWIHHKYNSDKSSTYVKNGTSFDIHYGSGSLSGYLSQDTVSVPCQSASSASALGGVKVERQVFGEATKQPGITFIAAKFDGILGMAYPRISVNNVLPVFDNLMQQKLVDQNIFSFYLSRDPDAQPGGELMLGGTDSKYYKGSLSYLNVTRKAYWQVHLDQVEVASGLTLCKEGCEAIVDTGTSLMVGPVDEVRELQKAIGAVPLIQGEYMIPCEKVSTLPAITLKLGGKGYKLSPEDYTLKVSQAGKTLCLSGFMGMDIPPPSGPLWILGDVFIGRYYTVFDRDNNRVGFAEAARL

Sequence of botulinum neurotoxin/A (BoNT/A) (P0DPI1 whole entry, looked up): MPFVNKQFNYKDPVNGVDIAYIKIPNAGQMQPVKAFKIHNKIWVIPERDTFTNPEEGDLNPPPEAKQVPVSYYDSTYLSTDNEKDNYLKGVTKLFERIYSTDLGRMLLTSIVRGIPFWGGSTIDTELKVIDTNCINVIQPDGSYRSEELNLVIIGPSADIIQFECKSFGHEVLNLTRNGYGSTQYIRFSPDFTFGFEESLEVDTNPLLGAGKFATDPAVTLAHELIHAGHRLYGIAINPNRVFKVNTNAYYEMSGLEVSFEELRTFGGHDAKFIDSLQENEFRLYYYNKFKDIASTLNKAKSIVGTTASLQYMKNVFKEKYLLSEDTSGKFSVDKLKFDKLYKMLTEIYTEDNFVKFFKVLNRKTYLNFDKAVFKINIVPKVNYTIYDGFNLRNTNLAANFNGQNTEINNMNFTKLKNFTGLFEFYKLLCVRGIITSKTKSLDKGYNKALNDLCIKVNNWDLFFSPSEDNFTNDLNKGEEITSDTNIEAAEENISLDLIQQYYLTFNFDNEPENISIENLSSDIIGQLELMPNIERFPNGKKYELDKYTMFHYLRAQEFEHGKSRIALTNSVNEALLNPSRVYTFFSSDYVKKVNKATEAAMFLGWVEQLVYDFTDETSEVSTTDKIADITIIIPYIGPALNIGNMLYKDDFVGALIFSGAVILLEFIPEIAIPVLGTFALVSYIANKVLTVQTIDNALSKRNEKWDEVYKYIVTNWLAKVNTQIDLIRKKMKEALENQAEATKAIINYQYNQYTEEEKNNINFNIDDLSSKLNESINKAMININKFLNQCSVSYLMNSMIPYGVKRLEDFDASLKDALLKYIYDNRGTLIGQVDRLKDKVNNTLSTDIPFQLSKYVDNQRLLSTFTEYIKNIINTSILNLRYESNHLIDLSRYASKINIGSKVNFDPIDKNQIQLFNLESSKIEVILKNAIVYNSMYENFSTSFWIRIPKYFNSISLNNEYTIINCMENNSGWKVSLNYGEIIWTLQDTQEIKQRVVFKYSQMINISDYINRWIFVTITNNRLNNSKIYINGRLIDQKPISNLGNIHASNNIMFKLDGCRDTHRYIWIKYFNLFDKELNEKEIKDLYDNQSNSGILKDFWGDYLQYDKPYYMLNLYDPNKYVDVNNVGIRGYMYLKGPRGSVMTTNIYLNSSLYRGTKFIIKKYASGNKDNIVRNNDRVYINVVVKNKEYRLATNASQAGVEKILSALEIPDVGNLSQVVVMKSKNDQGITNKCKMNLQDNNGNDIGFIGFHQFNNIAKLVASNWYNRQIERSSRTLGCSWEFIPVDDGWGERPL
T1 sequence (P15917 34-809 limits assumed): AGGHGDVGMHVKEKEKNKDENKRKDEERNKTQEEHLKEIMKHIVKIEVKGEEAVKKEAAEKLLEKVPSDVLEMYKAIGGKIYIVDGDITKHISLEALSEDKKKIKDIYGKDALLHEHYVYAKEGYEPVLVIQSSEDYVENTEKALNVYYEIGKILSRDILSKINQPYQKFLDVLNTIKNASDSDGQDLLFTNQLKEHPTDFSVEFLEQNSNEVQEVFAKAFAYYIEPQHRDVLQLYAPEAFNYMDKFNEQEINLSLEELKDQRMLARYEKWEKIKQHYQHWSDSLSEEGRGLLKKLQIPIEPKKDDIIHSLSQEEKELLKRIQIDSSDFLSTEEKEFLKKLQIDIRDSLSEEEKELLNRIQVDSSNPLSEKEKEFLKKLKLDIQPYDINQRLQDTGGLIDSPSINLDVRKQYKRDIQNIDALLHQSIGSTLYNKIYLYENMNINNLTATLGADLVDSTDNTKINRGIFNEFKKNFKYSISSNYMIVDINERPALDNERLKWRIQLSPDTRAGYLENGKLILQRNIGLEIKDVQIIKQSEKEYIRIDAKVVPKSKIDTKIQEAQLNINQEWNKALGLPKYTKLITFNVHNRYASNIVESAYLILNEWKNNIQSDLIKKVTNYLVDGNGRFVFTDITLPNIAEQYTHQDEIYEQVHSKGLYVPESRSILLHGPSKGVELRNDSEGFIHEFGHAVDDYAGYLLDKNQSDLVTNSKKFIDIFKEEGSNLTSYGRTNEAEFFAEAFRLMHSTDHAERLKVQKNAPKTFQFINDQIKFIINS

SMILES | Ki [1] [µM] | IC50 [2] [µM] | Ki [4] [µM] | also measured
NCCCCNCCCN [Spermidine] | > 100 | 76 |  | LF inhibition (in words) [1]: weaker than spermine but were still concentration-dependent inhibitors
N=C(N)NCCC[C@@H](N)C(=O)N[C@H](CCCNC(=N)N)C(=O)N[C@H](CCCNC(=N)N)C(=O)N[C@H](CCCNC(=N)N)C(=O)N[C@H](CCCNC(=N)N)C(=O)N[C@H](CCCNC(=N)N)C(N)=O [H-(D-Arg)-(D-Arg)-(D-Arg)-(D-Arg)-(D-Arg)-(D-Arg)-NH2] | 0.04 ± 0.02 |  |  | Ki [3]: 0.06 µM
NCCCCN [Putrescine (1,4-diaminobutane), 1,4-diaminobutane] | > 300 | > 300 | > 300 | 
NC[C@H]1O[C@H](O[C@H]2[C@H](O)[C@@H](O)[C@H](N)C[C@@H]2N)[C@H](N)[C@@H](O)[C@@H]1O [Neamine (free base), Neamine] | 31.1 ± 5.6 | 175 | > 300 | effect of DNA or RNA on concentration-dependent LF inhibitory activity [5]: unaffected by DNA or RNA
CC(=O)N[C@@H](CCCNC(=N)N)C(=O)N[C@@H](CCCNC(=N)N)C(=O)N[C@@H](CCCNC(=N)N)C(=O)N[C@@H](CCCNC(=N)N)C(=O)N[C@@H](CCCNC(=N)N)C(=O)N[C@@H](CCCNC(=N)N)C(N)=O [Ac-RRRRRR-NH2] | 0.12 |  |  | 
NC[C@@H]1O[C@H](O[C@H]2[C@@H](O)[C@H](O[C@@H]3[C@@H](O)[C@H](N)C[C@H](N)[C@H]3O[C@H]3O[C@H](CN)[C@@H](O)[C@H](O)[C@H]3N)O[C@@H]2CO)[C@H](N)[C@@H](O)[C@@H]1O [Neomycin B tris-sulfate] | 0.71 ± 0.04 | 92.5 | > 300 | right shift in potency as LF inhibitor caused by DNA [5]: ~ 10 fold
CNC(C)C1CCC(N)C(OC2C(N)CC(N)C(OC3OCC(C)(O)C(NC)C3O)C2O)O1 (stereo not drawn) [gentamicin] |  |  |  | LF inhibition (in words) [1]: inhibited LF enzyme activity
N=C(N)NC[C@@H]1O[C@H](O[C@H]2[C@@H](O)[C@H](O[C@@H]3[C@@H](O)[C@H](NC(=N)N)C[C@H](NC(=N)N)[C@H]3O[C@H]3O[C@H](CNC(=N)N)[C@@H](O)[C@H](O)[C@H]3NC(=N)N)O[C@@H]2CO)[C@H](NC(=N)N)[C@@H](O)[C@@H]1O [Neomycin B hexaguanyl hexatrifluoroacetate salt] | 0.03 | 14 | > 170 | Ki [3]: 1.5 µM
NCCC[C@H](N)C(=O)O [ornithine] |  |  |  | LF inhibition (in words) [1]: weaker than spermine but were still concentration-dependent inhibitors
NCC[C@H](O)C(=O)N[C@@H]1C[C@H](N)[C@@H](O[C@H]2O[C@H](CN)[C@@H](O)[C@H](O)[C@H]2O)[C@H](O)[C@H]1O[C@H]1O[C@H](CO)[C@@H](O)[C@H](N)[C@H]1O [Amikacin] | 23.3 | > 300 | > 300 | 
CNC(=O)[C@H](Cc1c[nH]c2ccccc12)NC(=O)[C@@H](CC(=O)NO)CC(C)C [GM 6001] | 7.2 ± 1.76 | > 300 |  | 
N=C(N)NC[C@H]1O[C@H](O[C@H]2[C@H](O)[C@@H](O)[C@H](NC(=N)N)C[C@@H]2NC(=N)N)[C@H](NC(=N)N)[C@@H](O)[C@@H]1O [Tetraguanyl neamine, free base, Tetraguanyl neamine] | 0.3 |  |  | 
NCCCNCCCCNCCCN [Spermine, diphosphate salt] | 0.9 ± 0.09 | 57 | > 300 | Ki [2]: 46 ± 6 µM; fold weaker as botulinum protease inhibitor than as anthrax LF inhibitor [2]: > 40 fold; effect of DNA or RNA on concentration-dependent LF inhibitory activity [5]: unaffected by DNA or RNA; IC50 [6]: > 500 µM; IC50 [7]: > 500 µM; IC50 [8]: > 500 µM
CN[C@@H]1[C@@H](O)[C@@H](O[C@@H]2[C@@H](O)[C@H](O[C@H]3OC(CN)=CC[C@H]3N)[C@@H](N)C[C@H]2N)OC[C@]1(C)O [Sisomicin Sulfate] | 1.8 | > 300 | > 300 | 
NC(N)=NCCC[C@H](NC(=O)[C@H](CCCN=C(N)N)NC(=O)[C@H](CCCN=C(N)N)NC(=O)[C@H](CCCN=C(N)N)NC(=O)[C@H](CCCN=C(N)N)NC(=O)[C@@H](N)CCCN=C(N)N)C(=O)O [H-RRRRRR-OH] | 0.24 |  |  | Ki [3]: 0.06 µM
CC(=O)N[C@@H](CCCNC(=N)N)C(=O)N[C@@H](CCCNC(=N)N)C(=O)N[C@@H](CCCNC(=N)N)C(=O)N[C@@H](CCCNC(=N)N)C(=O)N[C@@H](CCCNC(=N)N)C(=O)N[C@@H](CCCNC(=N)N)C(=O)O [Ac-RRRRRR-OH] | 0.29 ± 0.04 |  |  | Ki [3]: 0.05 µM
CN[C@@H]1[C@@H](O[C@H]2O[C@H](CO)[C@@H](N)[C@H](O)[C@H]2O)OC2C[C@@H](N)[C@@H](O[C@H]3[C@H](O)[C@@H](O)[C@H](N)C[C@@H]3N)OC2[C@@H]1O (stereo partly drawn) [Apramycin] | 111 | > 300 | > 300 | 
